Oligonucleotides are given in HELM: sugar(base)linkage, 5' to 3'; d 2'-deoxyribose, r ribose, m 2'-O-methylribose, p phosphate. ss, as = sense and antisense strand
These substances were tested against Mmp7 (rat) (assay: reporter assay of Huesken 2005). Conditions: siRNA.
Work on “RNA1{r(U)p.r(A)p.r(U)p.r(C)p.r(U)p.r(U)p.r(A)p.r(G)p.r(G)p.r(A)p.r(A)p.r(A)p.r(U)p.r(U)p.r(U)p.r(U)p.r(A)p.r(C)p.r(C)p.d(T)p.d(T)}|RNA2{r(G)p.r(G)p.r(U)p.r(A)p.r(A)p.r(A)p.r(A)p.r(U)p.r(U)p.r(U)p.r(C)p.r(C)p.r(U)p.r(A)p.r(A)p.r(G)p.r(A)p.r(U)p.r(A)p.d(A)p.d(T)}$$$RNA1{StrandType:ss}|RNA2{StrandType:as}$” yielded a normalised inhibition (eCFP-eYFP dual reporter) of 28.4%. “RNA1{r(G)p.r(C)p.r(A)p.r(G)p.r(U)p.r(G)p.r(G)p.r(A)p.r(C)p.r(A)p.r(A)p.r(A)p.r(C)p.r(U)p.r(G)p.r(A)p.r(G)p.r(G)p.r(G)p.d(T)p.d(T)}|RNA2{r(C)p.r(C)p.r(C)p.r(U)p.r(C)p.r(A)p.r(G)p.r(U)p.r(U)p.r(U)p.r(G)p.r(U)p.r(C)p.r(C)p.r(A)p.r(C)p.r(U)p.r(G)p.r(C)p.d(A)p.d(C)}$$$RNA1{StrandType:ss}|RNA2{StrandType:as}$” showed a normalised inhibition (eCFP-eYFP dual reporter) of 32.3%. In the case of “RNA1{r(U)p.r(U)p.r(G)p.r(C)p.r(C)p.r(G)p.r(G)p.r(A)p.r(G)p.r(A)p.r(C)p.r(U)p.r(G)p.r(G)p.r(A)p.r(A)p.r(A)p.r(G)p.r(C)p.d(T)p.d(T)}|RNA2{r(G)p.r(C)p.r(U)p.r(U)p.r(U)p.r(C)p.r(C)p.r(A)p.r(G)p.r(U)p.r(C)p.r(U)p.r(C)p.r(C)p.r(G)p.r(G)p.r(C)p.r(A)p.r(A)p.d(A)p.d(C)}$$$RNA1{StrandType:ss}|RNA2{StrandType:as}$”, the normalised inhibition (eCFP-eYFP dual reporter) is reported as 1.9%. For “RNA1{r(C)p.r(U)p.r(U)p.r(C)p.r(C)p.r(C)p.r(A)p.r(U)p.r(U)p.r(U)p.r(G)p.r(A)p.r(U)p.r(G)p.r(G)p.r(G)p.r(C)p.r(C)p.r(A)p.d(T)p.d(T)}|RNA2{r(U)p.r(G)p.r(G)p.r(C)p.r(C)p.r(C)p.r(A)p.r(U)p.r(C)p.r(A)p.r(A)p.r(A)p.r(U)p.r(G)p.r(G)p.r(G)p.r(A)p.r(A)p.r(G)p.d(T)p.d(T)}$$$RNA1{StrandType:ss}|RNA2{StrandType:as}$”, the normalised inhibition (eCFP-eYFP dual reporter) was 85%. In the case of “RNA1{r(G)p.r(G)p.r(U)p.r(U)p.r(U)p.r(G)p.r(C)p.r(C)p.r(G)p.r(G)p.r(A)p.r(G)p.r(A)p.r(C)p.r(U)p.r(G)p.r(G)p.r(A)p.r(A)p.d(T)p.d(T)}|RNA2{r(U)p.r(U)p.r(C)p.r(C)p.r(A)p.r(G)p.r(U)p.r(C)p.r(U)p.r(C)p.r(C)p.r(G)p.r(G)p.r(C)p.r(A)p.r(A)p.r(A)p.r(C)p.r(C)p.d(G)p.d(A)}$$$RNA1{StrandType:ss}|RNA2{StrandType:as}$”, the normalised inhibition (eCFP-eYFP dual reporter) is reported as 103%. With “RNA1{r(C)p.r(C)p.r(U)p.r(G)p.r(C)p.r(C)p.r(A)p.r(C)p.r(U)p.r(G)p.r(U)p.r(C)p.r(C)p.r(C)p.r(A)p.r(G)p.r(G)p.r(A)p.r(A)p.d(T)p.d(T)}|RNA2{r(U)p.r(U)p.r(C)p.r(C)p.r(U)p.r(G)p.r(G)p.r(G)p.r(A)p.r(C)p.r(A)p.r(G)p.r(U)p.r(G)p.r(G)p.r(C)p.r(A)p.r(G)p.r(G)p.d(G)p.d(C)}$$$RNA1{StrandType:ss}|RNA2{StrandType:as}$” the normalised inhibition (eCFP-eYFP dual reporter) was 67.9%. Work on “RNA1{r(G)p.r(A)p.r(U)p.r(G)p.r(G)p.r(U)p.r(G)p.r(A)p.r(G)p.r(G)p.r(A)p.r(C)p.r(U)p.r(C)p.r(A)p.r(G)p.r(G)p.r(C)p.r(G)p.d(T)p.d(T)}|RNA2{r(C)p.r(G)p.r(C)p.r(C)p.r(U)p.r(G)p.r(A)p.r(G)p.r(U)p.r(C)p.r(C)p.r(U)p.r(C)p.r(A)p.r(C)p.r(C)p.r(A)p.r(U)p.r(C)p.d(C)p.d(G)}$$$RNA1{StrandType:ss}|RNA2{StrandType:as}$” yielded a normalised inhibition (eCFP-eYFP dual reporter) of 61.8%. For “RNA1{r(C)p.r(A)p.r(G)p.r(U)p.r(G)p.r(C)p.r(A)p.r(G)p.r(U)p.r(G)p.r(G)p.r(A)p.r(C)p.r(A)p.r(A)p.r(A)p.r(C)p.r(U)p.r(G)p.d(T)p.d(T)}|RNA2{r(C)p.r(A)p.r(G)p.r(U)p.r(U)p.r(U)p.r(G)p.r(U)p.r(C)p.r(C)p.r(A)p.r(C)p.r(U)p.r(G)p.r(C)p.r(A)p.r(C)p.r(U)p.r(G)p.d(G)p.d(T)}$$$RNA1{StrandType:ss}|RNA2{StrandType:as}$”, the normalised inhibition (eCFP-eYFP dual reporter) was 100%. Substance “RNA1{r(C)p.r(G)p.r(C)p.r(A)p.r(A)p.r(G)p.r(G)p.r(G)p.r(G)p.r(A)p.r(G)p.r(A)p.r(U)p.r(C)p.r(A)p.r(C)p.r(G)p.r(G)p.r(A)p.d(T)p.d(T)}|RNA2{r(U)p.r(C)p.r(C)p.r(G)p.r(U)p.r(G)p.r(A)p.r(U)p.r(C)p.r(U)p.r(C)p.r(C)p.r(C)p.r(C)p.r(U)p.r(U)p.r(G)p.r(C)p.r(G)p.d(A)p.d(A)}$$$RNA1{StrandType:ss}|RNA2{StrandType:as}$” has a normalised inhibition (eCFP-eYFP dual reporter) of 97.3%. “RNA1{r(G)p.r(A)p.r(A)p.r(C)p.r(U)p.r(U)p.r(C)p.r(C)p.r(U)p.r(G)p.r(U)p.r(U)p.r(U)p.r(G)p.r(U)p.r(U)p.r(G)p.r(C)p.r(C)p.d(T)p.d(T)}|RNA2{r(G)p.r(G)p.r(C)p.r(A)p.r(A)p.r(C)p.r(A)p.r(A)p.r(A)p.r(C)p.r(A)p.r(G)p.r(G)p.r(A)p.r(A)p.r(G)p.r(U)p.r(U)p.r(C)p.d(A)p.d(C)}$$$RNA1{StrandType:ss}|RNA2{StrandType:as}$” showed a normalised inhibition (eCFP-eYFP dual reporter) of 53.6%. In the case of “RNA1{r(U)p.r(G)p.r(A)p.r(G)p.r(U)p.r(A)p.r(C)p.r(U)p.r(G)p.r(G)p.r(A)p.r(C)p.r(G)p.r(G)p.r(A)p.r(U)p.r(G)p.r(G)p.r(U)p.d(T)p.d(T)}|RNA2{r(A)p.r(C)p.r(C)p.r(A)p.r(U)p.r(C)p.r(C)p.r(G)p.r(U)p.r(C)p.r(C)p.r(A)p.r(G)p.r(U)p.r(A)p.r(C)p.r(U)p.r(C)p.r(A)p.d(T)p.d(C)}$$$RNA1{StrandType:ss}|RNA2{StrandType:as}$”, the normalised inhibition (eCFP-eYFP dual reporter) is reported as 63.1%. With “RNA1{r(C)p.r(C)p.r(C)p.r(A)p.r(G)p.r(G)p.r(U)p.r(G)p.r(U)p.r(G)p.r(G)p.r(A)p.r(G)p.r(U)p.r(G)p.r(C)p.r(C)p.r(A)p.r(G)p.d(T)p.d(T)}|RNA2{r(C)p.r(U)p.r(G)p.r(G)p.r(C)p.r(A)p.r(C)p.r(U)p.r(C)p.r(C)p.r(A)p.r(C)p.r(A)p.r(C)p.r(C)p.r(U)p.r(G)p.r(G)p.r(G)p.d(C)p.d(T)}$$$RNA1{StrandType:ss}|RNA2{StrandType:as}$” the normalised inhibition (eCFP-eYFP dual reporter) was 60.7%. In the case of “RNA1{r(G)p.r(C)p.r(A)p.r(G)p.r(A)p.r(C)p.r(A)p.r(U)p.r(C)p.r(A)p.r(U)p.r(A)p.r(A)p.r(U)p.r(U)p.r(G)p.r(G)p.r(C)p.r(U)p.d(T)p.d(T)}|RNA2{r(A)p.r(G)p.r(C)p.r(C)p.r(A)p.r(A)p.r(U)p.r(U)p.r(A)p.r(U)p.r(G)p.r(A)p.r(U)p.r(G)p.r(U)p.r(C)p.r(U)p.r(G)p.r(C)p.d(A)p.d(G)}$$$RNA1{StrandType:ss}|RNA2{StrandType:as}$”, the normalised inhibition (eCFP-eYFP dual reporter) is reported as 95.9%. With “RNA1{r(G)p.r(U)p.r(G)p.r(U)p.r(C)p.r(A)p.r(U)p.r(G)p.r(G)p.r(A)p.r(G)p.r(A)p.r(U)p.r(A)p.r(A)p.r(U)p.r(G)p.r(C)p.r(A)p.d(T)p.d(T)}|RNA2{r(U)p.r(G)p.r(C)p.r(A)p.r(U)p.r(U)p.r(A)p.r(U)p.r(C)p.r(U)p.r(C)p.r(C)p.r(A)p.r(U)p.r(G)p.r(A)p.r(C)p.r(A)p.r(C)p.d(G)p.d(G)}$$$RNA1{StrandType:ss}|RNA2{StrandType:as}$” the normalised inhibition (eCFP-eYFP dual reporter) was 112%. For “RNA1{r(G)p.r(A)p.r(C)p.r(U)p.r(U)p.r(C)p.r(A)p.r(G)p.r(U)p.r(C)p.r(U)p.r(U)p.r(A)p.r(C)p.r(A)p.r(A)p.r(A)p.r(G)p.r(G)p.d(T)p.d(T)}|RNA2{r(C)p.r(C)p.r(U)p.r(U)p.r(U)p.r(G)p.r(U)p.r(A)p.r(A)p.r(G)p.r(A)p.r(C)p.r(U)p.r(G)p.r(A)p.r(A)p.r(G)p.r(U)p.r(C)p.d(T)p.d(T)}$$$RNA1{StrandType:ss}|RNA2{StrandType:as}$”, the normalised inhibition (eCFP-eYFP dual reporter) was 92.9%. “RNA1{r(A)p.r(U)p.r(G)p.r(G)p.r(U)p.r(G)p.r(A)p.r(G)p.r(G)p.r(A)p.r(C)p.r(U)p.r(C)p.r(A)p.r(G)p.r(G)p.r(C)p.r(G)p.r(U)p.d(T)p.d(T)}|RNA2{r(A)p.r(C)p.r(G)p.r(C)p.r(C)p.r(U)p.r(G)p.r(A)p.r(G)p.r(U)p.r(C)p.r(C)p.r(U)p.r(C)p.r(A)p.r(C)p.r(C)p.r(A)p.r(U)p.d(C)p.d(C)}$$$RNA1{StrandType:ss}|RNA2{StrandType:as}$” was tested, and the normalised inhibition (eCFP-eYFP dual reporter) was 65.7%. In the case of “RNA1{r(G)p.r(U)p.r(C)p.r(C)p.r(U)p.r(A)p.r(A)p.r(G)p.r(U)p.r(G)p.r(G)p.r(C)p.r(A)p.r(U)p.r(U)p.r(C)p.r(C)p.r(A)p.r(G)p.d(T)p.d(T)}|RNA2{r(C)p.r(U)p.r(G)p.r(G)p.r(A)p.r(A)p.r(U)p.r(G)p.r(C)p.r(C)p.r(A)p.r(C)p.r(U)p.r(U)p.r(A)p.r(G)p.r(G)p.r(A)p.r(C)p.d(T)p.d(G)}$$$RNA1{StrandType:ss}|RNA2{StrandType:as}$”, the normalised inhibition (eCFP-eYFP dual reporter) is reported as 110%. Substance “RNA1{r(A)p.r(A)p.r(C)p.r(A)p.r(A)p.r(A)p.r(G)p.r(A)p.r(A)p.r(G)p.r(G)p.r(C)p.r(C)p.r(A)p.r(C)p.r(C)p.r(A)p.r(G)p.r(U)p.d(T)p.d(T)}|RNA2{r(A)p.r(C)p.r(U)p.r(G)p.r(G)p.r(U)p.r(G)p.r(G)p.r(C)p.r(C)p.r(U)p.r(U)p.r(C)p.r(U)p.r(U)p.r(U)p.r(G)p.r(U)p.r(U)p.d(T)p.d(T)}$$$RNA1{StrandType:ss}|RNA2{StrandType:as}$” has a normalised inhibition (eCFP-eYFP dual reporter) of 87.1%. “RNA1{r(U)p.r(C)p.r(U)p.r(A)p.r(A)p.r(A)p.r(A)p.r(C)p.r(A)p.r(A)p.r(A)p.r(G)p.r(A)p.r(A)p.r(G)p.r(G)p.r(C)p.r(C)p.r(A)p.d(T)p.d(T)}|RNA2{r(U)p.r(G)p.r(G)p.r(C)p.r(C)p.r(U)p.r(U)p.r(C)p.r(U)p.r(U)p.r(U)p.r(G)p.r(U)p.r(U)p.r(U)p.r(U)p.r(A)p.r(G)p.r(A)p.d(G)p.d(T)}$$$RNA1{StrandType:ss}|RNA2{StrandType:as}$” was tested, and the normalised inhibition (eCFP-eYFP dual reporter) was 95.7%. In the case of “RNA1{r(G)p.r(G)p.r(A)p.r(A)p.r(A)p.r(C)p.r(A)p.r(C)p.r(U)p.r(C)p.r(U)p.r(A)p.r(G)p.r(G)p.r(C)p.r(C)p.r(A)p.r(U)p.r(G)p.d(T)p.d(T)}|RNA2{r(C)p.r(A)p.r(U)p.r(G)p.r(G)p.r(C)p.r(C)p.r(U)p.r(A)p.r(G)p.r(A)p.r(G)p.r(U)p.r(G)p.r(U)p.r(U)p.r(U)p.r(C)p.r(C)p.d(T)p.d(G)}$$$RNA1{StrandType:ss}|RNA2{StrandType:as}$”, the normalised inhibition (eCFP-eYFP dual reporter) is reported as 89.7%.

— the OligoGym collection
Further: test concentration or dose not given here.
